# Measured values published in the supplement of paper PMC10307832.
# How the values were obtained:
# Experiment in all cases: relative viability (nuclei count vs DMSO), 5 days (fraction); higher = more cells survive
# [1] = compound: O=C(Nc1cccc(C(F)(F)F)c1)Nc1cc(S(=O)(=O)NC2CC2)ccc1-c1ccsc1 [AGI-6780]
# Method in brief: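 Lung cancer cell lines were seeded into 1536-well plates, kept overnight at 37 °C and pinned with five library-drug doses (not always all listed) spaced by √10. After 5 days, nuclei were Hoechst-stained, imaged at 4× and counted with MetaXpress. Viability is treated-well nuclei over vehicle-well nuclei, taken as a median across plates. Plates needed control CV below 25% and at least one doubling.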
# [2] = compound: O=C(Nc1cccc(C(F)(F)F)c1)Nc1cc(S(=O)(=O)NC2CC2)ccc1-c1ccsc1 [AGI-6780] + CC(C)C[C@H](NC(=O)[C@H](Cc1ccccc1)NC(=O)c1cnccn1)B(O)O [Bortezomib] (partner 0.002 µM)
# Method in brief: (§1)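 Lung cancer cell lines in 1536-well plates were dosed by pin tool the day after seeding, either with one drug alone or with a fixed anchor-drug dose plus five library-drug doses (not always all listed) in √10 steps. After 5 days, cells were fixed and their nuclei stained in one step (final 0.05% Triton X-100, 1% formaldehyde, 1 ug/ml Hoechst), then counted on 4× images. Relative viability is the nuclei count in treated wells divided by that in vehicle wells. Values are medians of duplicate plates.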
# [3] = compound: O=C(Nc1cccc(C(F)(F)F)c1)Nc1cc(S(=O)(=O)NC2CC2)ccc1-c1ccsc1 [AGI-6780] + O=C(c1cc(Cc2n[nH]c(=O)c3ccccc23)ccc1F)N1CCN(C(=O)C2CC2)CC1 [Olaparib] (partner 8 µM)
# Method in brief: as §1
# [4] = compound: O=C(Nc1cccc(C(F)(F)F)c1)Nc1cc(S(=O)(=O)NC2CC2)ccc1-c1ccsc1 [AGI-6780] + CS(=O)(=O)CCNCc1ccc(-c2ccc3ncnc(Nc4ccc(OCc5cccc(F)c5)c(Cl)c4)c3c2)o1 [Lapatinib] (partner 2 µM)
# Method in brief: as §1
# [5] = compound: O=C(Nc1cccc(C(F)(F)F)c1)Nc1cc(S(=O)(=O)NC2CC2)ccc1-c1ccsc1 [AGI-6780] + COc1cc2c(Oc3ccc(NC(=O)C4(C(=O)Nc5ccc(F)cc5)CC4)cc3F)ccnc2cc1OCCCN1CCOCC1 [Foretinib] (partner 0.25 µM)
# Method in brief: as §1
# [6] = compound: O=C(Nc1cccc(C(F)(F)F)c1)Nc1cc(S(=O)(=O)NC2CC2)ccc1-c1ccsc1 [AGI-6780] + C[C@@H](Oc1cc(-c2cnn(C3CCNCC3)c2)cnc1N)c1c(Cl)ccc(F)c1Cl [Crizotinib] (partner 1 µM)
# Method in brief: as §1
# [7] = compound: O=C(Nc1cccc(C(F)(F)F)c1)Nc1cc(S(=O)(=O)NC2CC2)ccc1-c1ccsc1 [AGI-6780] + CC1(C)CCC(c2ccc(Cl)cc2)=C(CN2CCN(c3ccc(C(=O)NS(=O)(=O)c4ccc(N[C@H](CCN5CCOCC5)CSc5ccccc5)c(S(=O)(=O)C(F)(F)F)c4)cc3)CC2)C1 [Navitoclax] (partner 0.5 µM)
# Method in brief: as §1
# [8] = compound: O=C(Nc1cccc(C(F)(F)F)c1)Nc1cc(S(=O)(=O)NC2CC2)ccc1-c1ccsc1 [AGI-6780] + C[C@]1(O)C[C@@H](c2nc(-c3ccc4ccc(-c5ccccc5)nc4c3)c3c(N)nccn32)C1 [Linsitinib] (partner 1 µM)
# Method in brief: as §1
# [9] = compound: O=C(Nc1cccc(C(F)(F)F)c1)Nc1cc(S(=O)(=O)NC2CC2)ccc1-c1ccsc1 [AGI-6780] + Cc1nc(NC(=O)N2CCC[C@H]2C(N)=O)sc1-c1ccnc(C(C)(C)C(F)(F)F)c1 [Alpelisib] (partner 2 µM)
# Method in brief: as §1
# [10] = compound: O=C(Nc1cccc(C(F)(F)F)c1)Nc1cc(S(=O)(=O)NC2CC2)ccc1-c1ccsc1 [AGI-6780] + CS(=O)(=O)N1CCN(Cc2cc3nc(-c4cccc5[nH]ncc45)nc(N4CCOCC4)c3s2)CC1 [Pictilisib] (partner 1 µM)
# Method in brief: as §1
# [11] = compound: O=C(Nc1cccc(C(F)(F)F)c1)Nc1cc(S(=O)(=O)NC2CC2)ccc1-c1ccsc1 [AGI-6780] + N=C(N)NC(=N)NCCc1ccccc1 [Phenformin] (partner 250 µM)
# Method in brief: as §1
# [12] = compound: O=C(Nc1cccc(C(F)(F)F)c1)Nc1cc(S(=O)(=O)NC2CC2)ccc1-c1ccsc1 [AGI-6780] + Nc1ncn([C@H]2C[C@H](O)[C@@H](CO)O2)c(=O)n1 [Decitabine] (partner 2 µM)
# Method in brief: as §1
cell line,measurement,setting,value
EBC-1,relative viability,[1]; 0.08 µM,1.07
same,relative viability,[1]; 0.253 µM,1.04
same,relative viability,[1]; 0.8 µM,0.985
same,relative viability,[1]; 2.53 µM,1
same,relative viability,[1]; 8 µM,1
same,relative viability,[2]; first compound 0.08 µM,0.781
same,relative viability,[2]; first compound 0.253 µM,0.566
same,relative viability,[2]; first compound 0.8 µM,0.485
same,relative viability,[2]; first compound 2.53 µM,0.601
same,relative viability,[2]; first compound 8 µM,0.529
same,relative viability,[3]; first compound 0.08 µM,0.788
same,relative viability,[3]; first compound 0.253 µM,0.789
same,relative viability,[3]; first compound 0.8 µM,0.664
same,relative viability,[3]; first compound 2.53 µM,0.655
same,relative viability,[3]; first compound 8 µM,0.747
same,relative viability,[4]; first compound 0.08 µM,0.224
same,relative viability,[4]; first compound 0.253 µM,0.21
same,relative viability,[4]; first compound 0.8 µM,0.198
same,relative viability,[4]; first compound 2.53 µM,0.202
same,relative viability,[4]; first compound 8 µM,0.201
same,relative viability,[5]; first compound 0.08 µM,0.104
same,relative viability,[5]; first compound 0.253 µM,0.105
same,relative viability,[5]; first compound 0.8 µM,0.106
same,relative viability,[5]; first compound 2.53 µM,0.11
same,relative viability,[5]; first compound 8 µM,0.104
same,relative viability,[6]; first compound 0.08 µM,0.199
same,relative viability,[6]; first compound 0.253 µM,0.184
same,relative viability,[6]; first compound 0.8 µM,0.186
same,relative viability,[6]; first compound 2.53 µM,0.175
same,relative viability,[6]; first compound 8 µM,0.183
same,relative viability,[7]; first compound 0.08 µM,0.407
same,relative viability,[7]; first compound 0.253 µM,0.429
same,relative viability,[7]; first compound 0.8 µM,0.365
same,relative viability,[7]; first compound 2.53 µM,0.512
same,relative viability,[7]; first compound 8 µM,0.38
same,relative viability,[8]; first compound 0.08 µM,0.861
same,relative viability,[8]; first compound 0.253 µM,1.13
same,relative viability,[8]; first compound 0.8 µM,0.885
same,relative viability,[8]; first compound 2.53 µM,0.836
same,relative viability,[8]; first compound 8 µM,0.94
same,relative viability,[9]; first compound 0.08 µM,0.965
same,relative viability,[9]; first compound 0.253 µM,0.923
same,relative viability,[9]; first compound 0.8 µM,0.798
same,relative viability,[9]; first compound 2.53 µM,0.783
same,relative viability,[9]; first compound 8 µM,0.841
same,relative viability,[10]; first compound 0.08 µM,0.388
same,relative viability,[10]; first compound 0.253 µM,0.337
same,relative viability,[10]; first compound 0.8 µM,0.343
same,relative viability,[10]; first compound 2.53 µM,0.379
same,relative viability,[10]; first compound 8 µM,0.347
A549,relative viability,[1]; 0.08 µM,0.992
same,relative viability,[1]; 0.253 µM,0.992
same,relative viability,[1]; 0.8 µM,1.08
same,relative viability,[1]; 2.53 µM,0.745
same,relative viability,[1]; 8 µM,0.992
same,relative viability,[3]; first compound 0.08 µM,0.32
same,relative viability,[3]; first compound 0.253 µM,0.298
same,relative viability,[3]; first compound 0.8 µM,0.337
same,relative viability,[3]; first compound 2.53 µM,0.302
same,relative viability,[3]; first compound 8 µM,0.377
same,relative viability,[4]; first compound 0.08 µM,0.999
same,relative viability,[4]; first compound 0.253 µM,0.968
same,relative viability,[4]; first compound 0.8 µM,1.14
same,relative viability,[4]; first compound 2.53 µM,0.927
same,relative viability,[4]; first compound 8 µM,1.06
same,relative viability,[5]; first compound 0.08 µM,1.04
same,relative viability,[5]; first compound 0.253 µM,0.956
same,relative viability,[5]; first compound 0.8 µM,0.88
same,relative viability,[5]; first compound 2.53 µM,0.729
same,relative viability,[5]; first compound 8 µM,1.07
same,relative viability,[6]; first compound 0.08 µM,0.763
same,relative viability,[6]; first compound 0.253 µM,0.765
same,relative viability,[6]; first compound 0.8 µM,0.855
same,relative viability,[6]; first compound 2.53 µM,0.625
same,relative viability,[6]; first compound 8 µM,0.836
same,relative viability,[11]; first compound 0.08 µM,0.153
same,relative viability,[11]; first compound 0.253 µM,0.177
same,relative viability,[11]; first compound 0.8 µM,0.25
same,relative viability,[11]; first compound 2.53 µM,0.133
same,relative viability,[11]; first compound 8 µM,0.175
same,relative viability,[7]; first compound 0.08 µM,1.31
same,relative viability,[7]; first compound 0.253 µM,1.27
same,relative viability,[7]; first compound 0.8 µM,1.37
same,relative viability,[7]; first compound 2.53 µM,1.13
same,relative viability,[7]; first compound 8 µM,1.23
same,relative viability,[8]; first compound 0.08 µM,0.585
same,relative viability,[8]; first compound 0.253 µM,0.594
same,relative viability,[8]; first compound 0.8 µM,0.701
same,relative viability,[8]; first compound 2.53 µM,0.452
same,relative viability,[8]; first compound 8 µM,0.545
same,relative viability,[12]; first compound 0.08 µM,0.329
same,relative viability,[12]; first compound 0.253 µM,0.211
same,relative viability,[12]; first compound 0.8 µM,0.275
same,relative viability,[12]; first compound 2.53 µM,0.292
same,relative viability,[12]; first compound 8 µM,0.322
same,relative viability,[9]; first compound 0.08 µM,0.797
same,relative viability,[9]; first compound 0.253 µM,0.662
same,relative viability,[9]; first compound 0.8 µM,0.76
same,relative viability,[9]; first compound 2.53 µM,0.593
same,relative viability,[9]; first compound 8 µM,0.747
same,relative viability,[10]; first compound 0.08 µM,0.583
same,relative viability,[10]; first compound 0.253 µM,0.463
same,relative viability,[10]; first compound 0.8 µM,0.604
same,relative viability,[10]; first compound 2.53 µM,0.459
same,relative viability,[10]; first compound 8 µM,0.463
